Source: patent US20250205200A1, “5-METHOXY-N,N-[…][…] THE TREATMENT OF […]” (GH RESEARCH IRELAND LIMITED, priority 2022, published 2025)

Tested on: patients with postpartum depression (PPD)
Test: Clinical trial of inhaled 5-MeO-DMT (individualized dosing regimen) in postpartum depression; one patient, 6 mg then 12 mg
Conditions: n=1; for MADRS Concentration Difficulties improvement / MADRS Concentration Difficulties score / MADRS Reduced appetite improvement / MADRS Reduced appetite score / MADRS Suicidal Thoughts improvement / MADRS Suicidal Thoughts score: baseline 0; for MADRS Inability to Feel improvement / MADRS Inability to Feel score / MADRS Lassitude improvement / MADRS Lassitude score: baseline 3; for MADRS Pessimistic Thoughts improvement / MADRS Pessimistic Thoughts score / MADRS Reported sadness improvement / MADRS Reported sadness score: baseline 4
Protocol: The single-arm, open-label clinical trial will involve 15 adult female patients with clinically diagnosed postpartum depression (PPD).
The second dose (12 mg) will only be administered if: • a. […] The 6 mg dose was safe and well-tolerated according to the investigator, • c. Any psychoactive effects (PsE) of the prior dose have subsided, and • d. Pre-dose vital parameters and forced expiratory volume in one second (FEV1) are in normal range, or if outside of the normal range, are not clinically significant according to the investigator. • 3. Similarly, a third dose (18 mg) will only be administered if: • a. […] The 12 mg dose was safe and well-tolerated according to the investigator, and • c. Any PsE of the prior dose have subsided, and • d. Pre-dose vital parameters and forced expiratory volume in one second (FEV1) are in normal range, or if outside of the normal range, are not clinically significant according to the investigator.
The patients will be assessed for a peak psychedelic experience (based on a patient-scored visual analogue scale, the PE scale), sedation, and other endpoints after dosing.
Follow-up visits are planned for Day 1, and Day 7 after the dosing day.
The following criteria must be met by all patients considered for clinical trial participation: • 1. Is female and in the age range between 18 and 45 years (inclusive) at screening. • 2. Has a body mass index (BMI) in the range of 18.5 and 35 kg/m^2 (inclusive) at screening. • 3. Meets the trial criteria for PPD as assessed by a trial psychiatrist or registered psychologist: • a. Diagnosis of Major Depressive Disorder without psychotic features, confirmed by the Mini-International Neuropsychiatric Interview (MINI), with peri-partum onset that began no earlier than gestation and no later than the first 4 weeks postpartum. • b. Has a Montgomery-Åsberg Depression Rating Scale (MADRS) total score of equal to or greater than 28 at screening and pre-dose on Day 0. • 6. […] Patients must have a negative pregnancy test at screening and on the pre-test day (Day −1). • 5. Is willing to delay start of other antidepressant or anxiety medication until after the end of the trial at Day 7 and agrees to keep any psychotherapy unchanged during the trial.
A potential patient who meets any of the following key exclusion criteria will be excluded from participation in this trial: • 1. Has, based on history, psychiatric assessment, and evaluation of the MINI, a current or prior diagnosis of bipolar disorder, a manic or hypomanic episode, a psychotic disorder, Major Depressive Disorder (MDD) or other mood disorder with psychotic features, obsessive compulsive disorder, post-traumatic stress disorder (PTSD), autism spectrum disorder, borderline personality disorder, schizophrenia, delusional disorder, paranoid personality disorder, schizoaffective disorder, clinically significant intellectual disability, or any other psychiatric comorbidity that renders the patient unsuitable for the trial according to the investigator's judgment. • 2. Has one or more first or second degree relatives with a current or previously diagnosed bipolar disorder, psychotic disorder or other mood disorder (including MDD) with psychotic features. • 3. Is in the judgement of a trial psychiatrist or registered psychologist, at significant risk for suicide based on history, psychiatric assessment, and evaluation of suicidal ideation and suicidal behaviour based on the Columbia-Suicide Severity Rating Scale (C-SSRS). • 4. Has taken anti-depressive medication within 14 days or 5 half-lives (whichever is longer) prior to dosing (exception: within the last 5 weeks in the case of fluoxetine). • 5.

Structure (SMILES): COc1ccc2[nH]cc(CCN(C)C)c2c1 [5-MeO-DMT]
- Adverse events (cramping left abdominal pain and headache, Day 0): mild, short-lasting and resolved spontaneously
- Criteria for MADRS response (at least 50% improvement) and MADRS remission (total score <=10): fulfilled standard criteria
- ECG (3 hours), safety laboratory analyses (7 days), CADSS (3 hours, 1 day, 7 days): unremarkable
- Tolerability of IDR (6 mg followed by 12 mg, inhalation): well tolerated
- Tolerability of the inhalation procedure: well tolerated with no inhalation-related adverse events
- MADRS Concentration Difficulties improvement (2 hr): 0
- MADRS Concentration Difficulties score (2 hr): 0
- MADRS Reduced appetite improvement (2 hr): 0
- MADRS Reduced appetite score (2 hr): 0
- MADRS Suicidal Thoughts improvement (2 hr): 0
- MADRS Suicidal Thoughts score (2 hr): 0
- MADRS Inability to Feel improvement (2 hr): 3
- MADRS Inability to Feel score (2 hr): 0
- MADRS Lassitude improvement (2 hr): 3
- MADRS Lassitude score (2 hr): 0
- MADRS Pessimistic Thoughts improvement (2 hr): 4
- MADRS Pessimistic Thoughts score (2 hr): 0
- MADRS Reported sadness improvement (2 hr): 4
- MADRS Reported sadness score (2 hr): 0
- MADRS Apparent sadness improvement (2 hr, baseline 5): 5
- MADRS Apparent sadness score (2 hr, baseline 5): 0
- MADRS Inner Tension improvement (2 hr, baseline 5): 5
- MADRS Inner Tension score (2 hr, baseline 5): 0
- MADRS Reduced Sleep improvement (2 hr, baseline 5): 0
- MADRS Reduced Sleep score (2 hr, baseline 5): 5
- MADRS Concentration Difficulties improvement (Day 1): 0
- MADRS Concentration Difficulties score (Day 1): 0
- MADRS Reduced appetite improvement (Day 1): 0
- MADRS Reduced appetite score (Day 1): 0
- MADRS Suicidal Thoughts improvement (Day 1): 0
- MADRS Suicidal Thoughts score (Day 1): 0
- BPRS Blunted affect improvement (Day 1, baseline 1): 0
- BPRS Blunted affect score (Day 1, baseline 1): 1
- BPRS Conceptual disorganization improvement (Day 1, baseline 1): 0
- BPRS Conceptual disorganization score (Day 1, baseline 1): 1
- BPRS Disorientation improvement (Day 1, baseline 1): 0
- BPRS Disorientation score (Day 1, baseline 1): 1
- BPRS Grandiosity improvement (Day 1, baseline 1): 0
- BPRS Grandiosity score (Day 1, baseline 1): 1
- BPRS Hallucinatory behaviour improvement (Day 1, baseline 1): 0
- BPRS Hallucinatory behaviour score (Day 1, baseline 1): 1
- BPRS Hostility improvement (Day 1, baseline 1): 0
- BPRS Hostility score (Day 1, baseline 1): 1
- BPRS Mannerisms and Posturing improvement (Day 1, baseline 1): 0
- BPRS Mannerisms and Posturing score (Day 1, baseline 1): 1
- BPRS Motor retardation improvement (Day 1, baseline 1): 0
- BPRS Motor retardation score (Day 1, baseline 1): 1
- BPRS Suspiciousness improvement (Day 1, baseline 1): 0
- BPRS Suspiciousness score (Day 1, baseline 1): 1
- BPRS Uncooperativeness improvement (Day 1, baseline 1): 0
- BPRS Uncooperativeness score (Day 1, baseline 1): 1
- BPRS Unusual Thought Content improvement (Day 1, baseline 1): 0
- BPRS Unusual Thought Content score (Day 1, baseline 1): 1
- BPRS Excitement improvement (Day 1, baseline 2): 1
- BPRS Excitement score (Day 1, baseline 2): 1
- MADRS Inability to Feel improvement (Day 1): 3
- MADRS Inability to Feel score (Day 1): 0
- MADRS Lassitude improvement (Day 1): 3
- MADRS Lassitude score (Day 1): 0
- MADRS Pessimistic Thoughts improvement (Day 1): 4
- MADRS Pessimistic Thoughts score (Day 1): 0
- MADRS Reported sadness improvement (Day 1): 4
- MADRS Reported sadness score (Day 1): 0
- BPRS Emotional withdrawal improvement (Day 1, baseline 5): 4
- BPRS Emotional withdrawal score (Day 1, baseline 5): 1
- MADRS Apparent sadness improvement (Day 1, baseline 5): 5
- MADRS Apparent sadness score (Day 1, baseline 5): 0
- MADRS Inner Tension improvement (Day 1, baseline 5): 5
- MADRS Inner Tension score (Day 1, baseline 5): 0
- MADRS Reduced Sleep improvement (Day 1, baseline 5): 5
- MADRS Reduced Sleep score (Day 1, baseline 5): 0
- BPRS Depressive Mood improvement (Day 1, baseline 6): 5
- BPRS Depressive Mood score (Day 1, baseline 6): 1
- BPRS Guilt feelings improvement (Day 1, baseline 6): 5
- BPRS Guilt feelings score (Day 1, baseline 6): 1
- BPRS Somatic Concern improvement (Day 1, baseline 6): 5
- BPRS Somatic Concern score (Day 1, baseline 6): 1
- BPRS Tension score (Day 1, baseline 6): 1
- BPRS Anxiety improvement (Day 1, baseline 7): 6
- BPRS Anxiety score (Day 1, baseline 7): 1
- BIMF item 2 (I feel rested) score (Day 7, Day 0 score 0): 2
- BIMF item 19 (getting better at taking care of my baby) score (Day 7, Day 0 score 0): 1
- BIMF item 18 (Anxiety or worry often interferes with my mothering ability) score (Day 7, Day 0 score 2): 5
- BIMF item 16 (I worry about how other people judge me (as a mother)) score (Day 7, Day 0 score 3): 5
- BIMF item 13 (taking good care of my physical needs) score (Day 7, Day 0 score 4): 5
- BIMF item 4 (My baby and I understand each other) score (Day 7, Day 0 score 5): 5
- BIMF item 5 (able to relax and enjoy time with my baby) score (Day 7, Day 0 score 5): 6
- BIMF item 9 (getting enough encouragement from other people) score (Day 7, Day 0 score 5): 6
- BIMF item 10 (I trust my own feelings (instincts) when taking care of my baby) score (Day 7, Day 0 score 5): 6
- BIMF item 11 (I take a little time each week to do something for myself) score (Day 7, Day 0 score 5): 6
- BIMF item 15 (My baby and I are getting into a routine) score (Day 7, Day 0 score 5): 6
- BIMF item 17 (able to take care of my baby and my other responsibilities) score (Day 7, Day 0 score 5): 5
- BIMF item 1 (I am a good mother) score (Day 7, Day 0 score 6): 6
- BIMF item 3 (comfortable with the way I've chosen to feed my baby) score (Day 7, Day 0 score 6): 6
- BIMF item 6 (people I can trust to care for my baby when I need a break) score (Day 7, Day 0 score 6): 6
- BIMF item 8 (getting enough adult interaction) score (Day 7, Day 0 score 6): 6
- BIMF item 12 (taking good care of my baby's physical needs) score (Day 7, Day 0 score 6): 6
- BIMF item 14 (good decisions about my baby's health and well being) score (Day 7, Day 0 score 6): 6
- BIMF item 20 (satisfied with the job I am doing as a new mother) score (Day 7, Day 0 score 6): 5
- MADRS Concentration Difficulties improvement (Day 7): 0
- MADRS Concentration Difficulties score (Day 7): 0
- MADRS Reduced appetite improvement (Day 7): 0
- MADRS Reduced appetite score (Day 7): 0
